Measured values reported in article PMC12272249, “Engineering high-efficiency matriptase substrates using E. coli display for applications in prodrug activation” (Cell Reports Methods, 2025).
Several values for one entry are separate records, joined by “and”; a condition that tells them apart may be missing. Equal entries are not always repeated. Where two headings read alike, the source gives them in different places.

Key:
matriptase [1] = target: T1, matriptase (Homo sapiens, UniProt Q9Y5Y6); experiment: E. coli display cleavage reporter assay, flow cytometry, matriptase treatment; format: biochemical; conditions: for time to complete cleavage / cleavage reporter signal of matriptase-treated compared to untreated cells: E. coli-displayed substrate; for time to complete cleavage: flow cytometry; for relative cleavage efficiency group (high, medium, low): E. coli-displayed substrate, 1, 10, 25 and 50 nM matriptase over 90 min; for cleavage reporter signal of matriptase-treated compared to untreated cells: 100 nM matriptase, 30 min, 37°C, n = 3
T1 construct: purchased R&D Systems (Bio-Techne) 3946-SEB
T1 sequence (Q9Y5Y6 615-855 limits assumed): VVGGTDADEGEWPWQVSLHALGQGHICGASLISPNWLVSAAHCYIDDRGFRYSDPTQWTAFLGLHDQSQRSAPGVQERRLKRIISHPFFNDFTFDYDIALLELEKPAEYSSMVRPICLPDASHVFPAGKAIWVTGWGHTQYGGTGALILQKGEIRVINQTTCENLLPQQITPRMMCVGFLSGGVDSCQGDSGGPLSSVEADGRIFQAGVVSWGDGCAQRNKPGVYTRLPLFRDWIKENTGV

matriptase [2] = target: T1, matriptase; experiment: Cleavage of soluble substrates in affibody-ABD format, SDS-PAGE; format: biochemical; conditions: 37°C; for cleavage: affibody-ABD fusion 50 μg/mL in PBS, SDS-PAGE densitometry (ImageJ)
Description: Affibody-ABD substrates (50 μg/mL in PBS) were treated with 1, 10, or 50 nM matriptase at 37°C for 10, 30, or 60 min. Reactions were quenched by adding SDS loading buffer (31.2 mM Tris-HCl, pH 6.8, 1% SDS, 12.5% glycerol, 0.01% bromophenol blue, 5 mM TCEP) and heating at 90°C for 10 min. Samples were analyzed by SDS-PAGE as above. High-resolution gel images (600 dpi) were analyzed using ImageJ (v1.54i). Band intensities were quantified to assess the fraction of cleaved vs. intact substrate. Data were processed in Microsoft Excel and visualized with GraphPad Prism 10.

matriptase [3] = target: T1, matriptase; experiment: FRET-based kinetic analysis of matriptase cleavage; format: biochemical; conditions: 10 nM matriptase; for substrate cleavage by matriptase under identical conditions: 30 μM Abz/Dnp peptide, 37°C, 6,000 s, three replicates; for Vmax / Km / kcat/KM / kcat: Abz/Dnp-labelled 6-mer peptide, PBS, 37°C, n = 3; for Vmax / Km / kcat: Michaelis-Menten fit; for Vmax / kcat/KM / kcat: average ± SD; for kcat: serial dilution of substrate, 90 min, Ex 320/Em 420 nm
legumain = target: T2, legumain (Homo sapiens, UniProt Q99538); experiment: FRET substrate stability against legumain; format: in vitro ADME; conditions: 30 μM Abz/Dnp peptide, 10 nM legumain, appropriate buffer, 37°C, 100 min (6,000 s), fluorescence, three replicates
T2 construct: purchased R&D Systems (Bio-Techne) 2199-CY
T2 sequence (Q99538 18-433): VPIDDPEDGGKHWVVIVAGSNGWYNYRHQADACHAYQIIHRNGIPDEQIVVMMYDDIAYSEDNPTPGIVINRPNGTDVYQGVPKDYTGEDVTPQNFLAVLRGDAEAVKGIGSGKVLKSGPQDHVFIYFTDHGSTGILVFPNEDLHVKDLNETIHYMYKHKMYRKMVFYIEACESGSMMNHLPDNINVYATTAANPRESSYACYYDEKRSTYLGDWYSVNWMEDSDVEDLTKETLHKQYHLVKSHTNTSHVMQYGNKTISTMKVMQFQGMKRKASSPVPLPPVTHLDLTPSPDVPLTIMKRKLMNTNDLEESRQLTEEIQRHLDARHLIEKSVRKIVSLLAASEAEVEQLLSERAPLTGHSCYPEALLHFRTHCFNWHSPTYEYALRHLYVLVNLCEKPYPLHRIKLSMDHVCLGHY
Description: (§1) (cysteine protease), urokinase plasminogen[36] (uPA; serine protease), and MMP-2[37] (matrix metalloprotease), respectively.
(§2) Initial velocity (V0) was calculated from early linear slopes. […] Fluorescence was recorded for 6000 s.

[4] = target: urokinase-type plasminogen activator (uPA) (Homo sapiens, UniProt P00749); experiment: FRET substrate stability against uPA; format: in vitro ADME; conditions: 30 μM Abz/Dnp peptide, 10 nM uPA, appropriate buffer, 37°C, 100 min (6,000 s), fluorescence, three replicates
Description: as §1, §2

matriptase [5] = target: T1, matriptase; format: biochemical
matriptase [6] = target: T1, matriptase; conditions: previously reported value; cited from earlier work
Description: The most promising newly discovered substrates (MtpB9, MtpC5, and MtpC9), along with control substrates, were chemically synthesized and linked to 2-aminobenzoyl (Abz) and 2,4-dinitrophenyl (Dnp), a standard fluorophore/quencher combination used in FRET assays (Figure 4A). A serial dilution of the substrates (ranging from 120 to 1.75 μM) was used to monitor matriptase cleavage activity. The reaction was tracked by measuring the Abz fluorescence continuously for 90 min. Kinetic parameters were calculated by fitting the cleavage rates to substrate concentrations using the Michaelis-Menten equati ...

TEV protease = TEV protease (Tobacco etch virus, UniProt P04517); experiment: E. coli display cleavage reporter assay, flow cytometry, TEV protease treatment; conditions: E. coli-displayed substrate, 100 nM TEV, 30 min, 30°C, n = 3
Sequence of TEV protease (P04517 2038-2279): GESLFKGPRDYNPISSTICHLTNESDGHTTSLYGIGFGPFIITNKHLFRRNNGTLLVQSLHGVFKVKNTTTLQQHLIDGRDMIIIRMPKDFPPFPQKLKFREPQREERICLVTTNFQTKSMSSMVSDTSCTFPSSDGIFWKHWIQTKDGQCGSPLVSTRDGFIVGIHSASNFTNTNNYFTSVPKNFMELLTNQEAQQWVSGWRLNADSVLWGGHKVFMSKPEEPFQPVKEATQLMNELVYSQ

Substance	time to complete cleavage (matriptase [1]; 10 nM matriptase)	time to complete cleavage (matriptase [1]; 25 nM matriptase)	relative cleavage efficiency group (high, medium, low) (matriptase [1])	substrate cleavage by matriptase under identical conditions (matriptase [3])	Vmax (matriptase [3])	Km (matriptase [3])	kcat/KM (matriptase [3])	kcat (matriptase [3])	substrate cleavage by legumain (legumain)	substrate cleavage by uPA [4]	time to complete cleavage (matriptase [5])	further results
VPRGRR [MtpC5]	60 min	≤ 30 min	high	cleavage was observed	0.06 ± 0.0005 µM/s	12.5 µM	5.13E+05 ± 3,910 M^−1 s^−1 and 5.1E+05 ± 3,910 M^−1 s^−1	6.4 ± 0.05 s⁻¹	No detectable substrate cleavage	No detectable substrate cleavage	≤ 30 min	cleavage (matriptase [2]; 1 nM matriptase, 10 min, two replicates): approximately 86%
MKRKAR [MtpC10]	–	–	medium	–	–	–	–	–	–	–	–	–
HYKGRK [MtpC9]	60 min	≤ 30 min	high	cleavage was observed	0.06 ± 0.0021 µM/s	29.1 µM	1.9E+05 ± 7,099 M^−1 s^−1	5.6 ± 0.21 s⁻¹	No detectable substrate cleavage	No detectable substrate cleavage	≤ 30 min	–
LKRLMR [MtpA6]	–	–	low	–	–	–	–	–	–	–	–	–
PFKRQL [MtpC12]	–	–	low	–	–	–	–	–	–	–	–	–
LSGRSDNH [Mtp-control, reference compound]	–	–	–	–	0.02 ± 0.0057 µM/s	191 µM	1.28E+04 ± 2,969 M^−1 s^−1 and 1.3E+04 ± 2,969 M^−1 s^−1	2.5 ± 0.57 s⁻¹	No detectable cleavage	No detectable cleavage	–	cleavage reporter signal of matriptase-treated compared to untreated cells (matriptase [1]): significantly lower signals; cleavage (matriptase [2]; 50 nM matriptase, 1 h): 96%; kcat/KM in the previous study (matriptase [6]): 2200 M⁻¹ s⁻¹; cleavage reporter signal of TEV-treated compared to untreated cells (TEV protease): No significant difference
ENLYFQG [TEV-control, reference compound]	–	–	–	–	–	–	–	–	No detectable cleavage	No detectable cleavage	–	cleavage reporter signal of matriptase-treated compared to untreated cells (matriptase [1]): No significant difference; cleavage under any tested conditions (matriptase [2]; affibody-ABD fusion, 1, 10 or 50 nM matriptase, 10, 30 or 60 min, SDS-PAGE): no cleavage; cleavage reporter signal of TEV-treated compared to untreated cells (TEV protease): significantly lower signals
MGRSFY [MtpB11]	–	–	medium	–	–	–	–	–	–	–	–	–
GAKSRR [MtpB9]	60 min	≤ 30 min	high	cleavage was observed	0.04 ± 0.0007 µM/s	18.7 µM	2.3E+05 ± 3,948 M^−1 s^−1	4.4 ± 0.07 s⁻¹	No detectable substrate cleavage	No detectable substrate cleavage	≤ 30 min	–
